# Measured values taken from US20170112859A1, “METHOD OF TREATMENT USING AN ASSOCIATION OF LOSARTAN AND ACETYLSALICYLIC ACID, AND KIT” (BIOLAB SANUS FARMACEUTICA LTDA, priority 2014, published 2017).
# “Also recorded” adds a separate entry of the source.
# How the values were obtained:
# [1] = biological target: T1, platelet cyclooxygenase enzyme (Homo sapiens, UniProt P23219); test: measurement of thromboxane B2 (TXB2) in stimulated platelet-rich plasma by immunoenzymatic technique; assay type: in vivo; conditions: D15-D17
# T1 construct: from tissue; host or cells: platelets of dosed healthy volunteers (ex vivo stimulation with arachidonic acid or ADP)
# T1 sequence (P23219 24-599): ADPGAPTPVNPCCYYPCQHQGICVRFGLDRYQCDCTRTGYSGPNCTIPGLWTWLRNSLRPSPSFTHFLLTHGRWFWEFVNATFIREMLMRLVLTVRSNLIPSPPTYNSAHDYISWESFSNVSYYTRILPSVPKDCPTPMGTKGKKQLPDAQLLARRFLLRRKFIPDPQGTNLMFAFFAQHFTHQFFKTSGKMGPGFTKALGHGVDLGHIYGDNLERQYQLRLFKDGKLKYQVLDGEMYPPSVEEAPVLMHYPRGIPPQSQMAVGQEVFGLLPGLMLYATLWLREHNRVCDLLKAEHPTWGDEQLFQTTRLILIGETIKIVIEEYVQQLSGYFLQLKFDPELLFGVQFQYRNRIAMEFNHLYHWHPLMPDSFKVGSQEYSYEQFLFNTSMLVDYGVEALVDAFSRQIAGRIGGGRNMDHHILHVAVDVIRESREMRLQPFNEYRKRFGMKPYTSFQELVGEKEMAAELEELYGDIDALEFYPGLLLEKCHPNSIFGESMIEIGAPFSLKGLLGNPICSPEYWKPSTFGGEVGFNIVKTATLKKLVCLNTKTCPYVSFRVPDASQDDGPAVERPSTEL
# Procedure: (§1) One group (Arm A) received 30 days of daily doses of 50 mg of losartan potassium and 81 mg of acetylsalicylic acid. The second group (Arm B) received over the same 30 day period, daily doses of 50 mg of losartan potassium and doses of 81 mg of acetylsalicylic acid only every three days.
# (§2) Control of bioavailability for acetylsalicylic acid in the analyzed individuals was performed through platelet aggregation tests, using arachidonic acid and adenosine diphosphate (ADP) as stimulants, and through the measuring of thromboxane by immunoenzymatic techniques.
# Such control is based on tests to evaluate the competition between two compounds for binding to a specific antibody, namely, free thromboxane 2 (TXB 2) to be analyzed and present in the samples tested, and marked thromboxane 2 (TXB 2), attached to a molecule of acetylcholinesterase and with constant concentration (provided by the test kits).
# (§3) The test results shown in FIGS. 1 to 6 consider four periods: D0, which is the pre-test time D15—the fifteenth day of testing, D16—the sixteenth day of testing and D17—the seventeenth day testing.
# [2] = test system: prostaglandin synthesis (PGE2) in gastric mucosa; conditions: daily use, as described in the prior art; cited from earlier work
# platelet aggregation = platelet aggregation tests with arachidonic acid or ADP as stimulants, volunteers' platelet-rich plasma; assay type: in vivo, human
# Procedure: as §1, §2, §3
# [3] = test system: prostaglandin synthesis (PGE2) in gastric mucosa; test: prostaglandin-E2 concentration in antrum biopsies collected during endoscopy, pre- and post-treatment; assay type: in vivo, human; conditions: 30 days
# Procedure: as §1
# To obtain this proof, endoscopic tests were performed on each volunteer, always before starting treatment and also after treatment, when biopsies were collected.
# From these samples, collected from both Arm A and Arm B of the treatment, the inhibition of prostaglandin was measured.
# [4] = Arm A: 81 mg daily plus 50 mg losartan potassium daily
# [5] = Arm B: 81 mg every three days plus 50 mg losartan potassium daily
compound,measurement,setting,value
CC(=O)Oc1ccccc1C(=O)O [acetylsalicylic acid],inhibition of the platelet cyclooxygenase enzyme,[1]; [4],satisfactory inhibition
same,inhibition of the platelet cyclooxygenase enzyme,[1]; [5],satisfactory inhibition
same,PGE2 levels,[2],drastically reduces
same,level of platelet inhibition,"platelet aggregation; Arm A (81 mg daily) compared with Arm B (81 mg every three days), both with 50 mg losartan potassium daily, 30 days, healthy volunteers, stimulants arachidonic acid 300 μg/ml or ADP 20 μM",almost the same level of platelet inhibition
same,inhibitory effect of the platelet aggregation,platelet aggregation; acetylsalicylic acid administered every three days,sustained
same,prostaglandin (PGE2) levels post-treatment versus pre-treatment basal,[3]; [4],significant decrease
same,prostaglandin (PGE2) levels post-treatment versus pre-treatment basal,[3]; [5],did not alter the basal dose; also recorded: remained unaltered
